From patent US9090576B2, “2-substituted-p-quinone derivatives for treatment of oxidative stress diseases” (Edison Pharmaceuticals, Inc., priority 2008, dated 2015)

Legend:
Type in all cases: cell-based
[1] = tested on: human dermal fibroblasts from CoQ10 deficient patients; test: Rescue of BSO-stressed fibroblasts from CoQ10 deficient patients (screen similar to Example A); conditions: Fibroblast, BSO-stressed fibroblasts from CoQ10 deficient patients harboring a CoQ2 mutation, less than about 150 nM, read-out: EC50, protection against CoQ10 deficiency
Protocol: (§1) A culture with FRDA fibroblasts was started from a 1 ml vial with approximately 500,000 cells stored in liquid nitrogen. Cells were propagated in 10 cm cell culture dishes by splitting every third day in a ratio of 1:3 until nine plates were available. Once confluent, fibroblasts were harvested. For 54 micro titer plates (96 well-MTP) a total of 14.3 million cells (passage eight) were re-suspended in 480 ml medium, corresponding to 100 μl medium with 3,000 cells/well. The remaining cells were distributed in 10 cm cell culture plates (500,000 cells/plate) for propagation. The plates were incubated overnight at 37° C. in an atmosphere with 95% humidity and 5% CO2 to allow attachment of the cells to the culture plate.
(§2) MTP medium (243 μl) was added to a well of the microtiter plate. The test compounds were unfrozen, and 7.5 μl of a 5 mM stock solution was dissolved in the well containing 243 μl medium, resulting in a 150 μM master solution. Serial dilutions from the master solution were made. The period between the single dilution steps was kept as short as possible (generally less than 1 second).
(§3) Plates were kept overnight in the cell culture incubator. The next day, 10 μl of a 10 mM BSO solution were added to the wells, resulting in a 1 mM final BSO concentration. Forty-eight hours later, three plates were examined under a phase-contrast microscope to verify that the cells in the 0% control (wells E1-H1) were clearly dead. The medium from all plates was discarded, and the remaining liquid was removed by gently tapping the plate inversed onto a paper towel.
(§4) 100 μl of PBS containing 1.2 μM Calcein AM were then added to each well. The plates were incubated for 50-70 minutes at room temperature. After that time the PBS was discarded, the plate gently tapped on a paper towel and fluorescence (excitation/emission wavelengths of 485 nm and 525 nm, respectively) was read on a Gemini fluorescence reader. Data was imported into Microsoft Excel (EXCEL is a registered trademark of Microsoft Corporation for a spreadsheet program) and used to calculate the EC50 concentration for each compound.
Compounds of the invention were tested using a screen similar to the one described in Example A, but substituting FRDA cells with cells obtained from CoQ10 deficient patients harboring a CoQ2 mutation. The compounds were tested for their ability to rescue human dermal fibroblasts from CoQ10 deficient patients from oxidative stress.

[2] = tested on: Human dermal fibroblasts from Friedreich's Ataxia patients; test: Rescue of BSO-stressed FRDA fibroblasts (Calcein AM viability); conditions: BSO-stressed FRDA fibroblasts (GM04078), less than about 150 nM, read-out: EC50, protection against FRDA
Outline: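 Patient FRDA fibroblasts (GM04078) seeded at 3,000 cells/well, given serially diluted compound from a 150 μM master solution, then stressed next day with 1 mM BSO.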

[3] = tested on: human dermal fibroblasts from LHON patients; test: Rescue of BSO-stressed fibroblasts from LHON patients (screen as Example A); conditions: Fibroblast, BSO-stressed LHON fibroblasts (GM03858), less than about 150 nM, read-out: EC50, protection against LHON
Outline: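 LHON patient fibroblasts (Coriell GM03858) at 3,000 cells/well were pre-treated overnight with compounds serially diluted from a 150 μM master solution. Surviving cells were stained with 1.2 μM Calcein AM for 50-70 min at RT and read by fluorescence (485/525 nm), giving EC50.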

[4] = tested on: human dermal fibroblasts from Huntington's patients; test: Rescue of BSO-stressed fibroblasts from Huntington's patients (screen as Example A); conditions: Fibroblast, BSO-stressed Huntington's fibroblasts (GM 04281), less than about 150 nM, read-out: EC50, protection against Huntington's
Outline: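 Coriell Huntington's line GM 04281 plated at 3,000 cells/well and attached overnight at 37 °C. Survival was read by Calcein AM (1.2 μM, 50-70 min, RT) fluorescence at 485/525 nm, giving EC50.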

[5] = tested on: human dermal fibroblasts from Parkinson's Disease patients; test: Rescue of BSO-stressed fibroblasts from Parkinson's Disease patients (screen as Example A); conditions: Fibroblast, BSO-stressed Parkinson's Disease fibroblasts (AG20439), less than about 150 nM, read-out: EC50, protection against PD
Protocol: as §1, §2, §3, §4
Compounds of the invention were screened as described in Example A, but substituting FRDA cells with Parkinson's Disease (PD) cells obtained from the Coriell Cell Repositories (Camden, N.J.; repository number AG20439). The compounds were tested for their ability to rescue human dermal fibroblasts from Parkinson's Disease patients from oxidative stress.

Measured: EC50

CC1=C(C)C(=O)C(CCCC(=O)Nc2ccc(Cl)cc2N)=C(C)C1=O [N-(2-amino-4-chlorophenyl)-4-(2,4,5-trimethyl-3,6-dioxocyclohexa-1,4-dienyl)butanamide]
< 150 nM: all assays above

COc1cccc(NC(=O)CCCC2=C(C)C(=O)C(C)=C(C)C2=O)c1 [N-(3-methoxyphenyl)-4-(2,4,5-trimethyl-3,6-dioxocyclohexa-1,4-dienyl)butanamide]
< 150 nM: all assays above

CC1=C(C)C(=O)C(CCCC(=O)NCc2ccccc2F)=C(C)C1=O [N-(2-fluorobenzyl)-4-(2,4,5-trimethyl-3,6-dioxocyclohexa-1,4-dienyl)butanamide]
< 150 nM: [1] | [4] | [5]

CC1=C(C)C(=O)C(CCCC(=O)Nc2ccc(C#N)cc2)=C(C)C1=O [N-(4-cyanophenyl)-4-(2,4,5-trimethyl-3,6-dioxocyclohexa-1,4-dienyl)butanamide]
< 150 nM: all assays above

CC1=C(C)C(=O)C(CCC(C)(C)C(N)=O)=C(C)C1=O [2,2-dimethyl-4-(2,4,5-trimethyl-3,6-dioxocyclohexa-1,4-dienyl)butanamide]
< 150 nM: all assays above

CC1=C(C)C(=O)C(CCCC(=O)N(Cc2ccccc2)C(C)C)=C(C)C1=O [N-benzyl-N-isopropyl-4-(2,4,5-trimethyl-3,6-dioxocyclohexa-1,4-dienyl)butanamide]
< 150 nM: all assays above

CC1=C(C)C(=O)C(CCCC(=O)Nc2ccccc2)=C(C)C1=O [N-phenyl-4-(2,4,5-trimethyl-3,6-dioxocyclohexa-1,4-dienyl)butanamide]
< 150 nM: all assays above

CC1=C(C)C(=O)C(CCCC(=O)Nc2ccc(C)cc2)=C(C)C1=O [N-p-tolyl-4-(2,4,5-trimethyl-3,6-dioxocyclohexa-1,4-dienyl)butanamide]
< 150 nM: all assays above

CC1=C(C)C(=O)C(CCCC(=O)Nc2ccccc2F)=C(C)C1=O [N-(2-fluorophenyl)-4-(2,4,5-trimethyl-3,6-dioxocyclohexa-1,4-dienyl)butanamide]
< 150 nM: all assays above

COc1ccccc1NC(=O)CCCC1=C(C)C(=O)C(C)=C(C)C1=O [N-(2-methoxyphenyl)-4-(2,4,5-trimethyl-3,6-dioxocyclohexa-1,4-dienyl)butanamide]
< 150 nM: all assays above

CC1=C(C)C(=O)C(CCCC(=O)NCc2cccc(F)c2)=C(C)C1=O [N-(3-fluorobenzyl)-4-(2,4,5-trimethyl-3,6-dioxocyclohexa-1,4-dienyl)butanamide]
< 150 nM: [1] | [4] | [5]

COc1ccc(NC(=O)CCCC2=C(C)C(=O)C(C)=C(C)C2=O)cc1OC [N-(3,4-dimethoxyphenyl)-4-(2,4,5-trimethyl-3,6-dioxocyclohexa-1,4-dienyl)butanamide]
< 150 nM: all assays above

CC1=C(C)C(=O)C(CCCC(=O)NCc2cccc(Cl)c2)=C(C)C1=O [N-(3-chlorobenzyl)-4-(2,4,5-trimethyl-3,6-dioxocyclohexa-1,4-dienyl)butanamide]
not listed: [2]
< 150 nM: all other assays above

CC1=C(C)C(=O)C(CCCC(=O)N2CCc3ccccc3C2)=C(C)C1=O [2-(4-(3,4-dihydroisoquinolin-2(1H)-yl)-4-oxobutyl)-3,5,6-trimethylcyclohexa-2,5-diene-1,4-dione]
< 150 nM: all assays above

CC1=C(C)C(=O)C(CCCC(=O)NCc2ccc(Cl)cc2)=C(C)C1=O [N-(4-chlorobenzyl)-4-(2,4,5-trimethyl-3,6-dioxocyclohexa-1,4-dienyl)butanamide]
< 150 nM: all assays above

CC1=C(C)C(=O)C(CCCC(=O)NCc2ccccc2Cl)=C(C)C1=O [N-(2-chlorobenzyl)-4-(2,4,5-trimethyl-3,6-dioxocyclohexa-1,4-dienyl)butanamide]
< 150 nM: all assays above

CC1=C(C)C(=O)C(CCCC(=O)NCCc2cccc(F)c2)=C(C)C1=O [N-(3-fluorophenethyl)-4-(2,4,5-trimethyl-3,6-dioxocyclohexa-1,4-dienyl)butanamide]
< 150 nM: all assays above

CC1=C(C)C(=O)C(CCCC(=O)NCCc2cccc(Cl)c2)=C(C)C1=O [N-(3-chlorophenethyl)-4-(2,4,5-trimethyl-3,6-dioxocyclohexa-1,4-dienyl)butanamide]
not listed: [2]
< 150 nM: all other assays above

CC1=C(C)C(=O)C(CCCC(=O)N(C)c2ccc(Cl)cc2)=C(C)C1=O [N-(4-chlorophenyl)-N-methyl-4-(2,4,5-trimethyl-3,6-dioxocyclohexa-1,4-dienyl)butanamide]
< 150 nM: all assays above

CC1=C(C)C(=O)C(CCCC(=O)NCc2ccccc2)=C(C)C1=O [N-benzyl-4-(2,4,5-trimethyl-3,6-dioxocyclohexa-1,4-dienyl)butanamide]
not listed: [2]
< 150 nM: all other assays above

CC1=C(C)C(=O)C(CCCC(=O)Nc2cccc(F)c2)=C(C)C1=O [N-(3-fluorophenyl)-4-(2,4,5-trimethyl-3,6-dioxocyclohexa-1,4-dienyl)butanamide]
not listed: [5]
< 150 nM: all other assays above

CC1=C(C)C(=O)C(CCCC(=O)Nc2cccc(C#N)c2)=C(C)C1=O [N-(3-cyanophenyl)-4-(2,4,5-trimethyl-3,6-dioxocyclohexa-1,4-dienyl)butanamide]
not listed: [5]
< 150 nM: all other assays above

CC1=C(C)C(=O)C(CCNC(=O)NCc2ccc(C(F)(F)F)cc2)=C(C)C1=O [1-(4-(trifluoromethyl)benzyl)-3-(2-(2,4,5-trimethyl-3,6-dioxocyclohexa-1,4-dienyl)ethyl)urea]
not listed: [5]
< 150 nM: all other assays above

COc1ccc(CC(=O)NCCC2=C(C)C(=O)C(C)=C(C)C2=O)cc1 [2-(4-methoxyphenyl)-N-(2-(2,4,5-trimethyl-3,6-dioxocyclohexa-1,4-dienyl)ethyl)acetamide]
not listed: [5]
< 150 nM: all other assays above
